Like-named read-outs stand apart in the source and are kept apart here.
What was measured:
ANF (P19 cells) = experiment: ANF promoter luciferase reporter assay in P19 cells; assay type: cell-based, mouse; conditions: Mus musculus, read-out: ANF activity
Nkx2.5 (P19 cells) = experiment: Nkx2.5 luciferase reporter assay in P19 cells; assay type: cell-based; conditions: Mus musculus, read-out: Nkx2.5 activity
ANF (C2C12 cells) = experiment: ANF promoter luciferase reporter assay in C2C12 cells; assay type: cell-based, mouse; conditions: for fold induction at 1 µM: Mus musculus, read-out: ANF activity
TOPflash (C2C12 cells) = experiment: TOPflash luciferase reporter assay in C2C12 cells; assay type: cell-based; conditions: Mus musculus, read-out: TOPflash activity
Nkx2.5 (C2C12 cells) = experiment: Nkx2.5 luciferase reporter assay in C2C12 cells; assay type: cell-based; conditions: Mus musculus, read-out: Nkx2.5 activity
TOPflash (P19 cells) = experiment: TOPflash luciferase reporter assay in P19 cells; assay type: cell-based; conditions: Mus musculus, read-out: TOPflash activity
[1] = 192 h, P19 cells, 1 μM for 8 days, luciferase signal vs control (untreated cells)
[2] = 192 h, C2C12 cells, 1 μM for 8 days, luciferase signal vs control (untreated cells)

Row | Structure (SMILES) | fold induction at 1 µM (ANF (P19 cells); [1]) | fold induction at 1 µM (Nkx2.5 (P19 cells); [1]) | fold induction at 1 µM (ANF (P19 cells); P19, 192 h) | also measured
1 | COc1ccc(Nc2cc(N3CCOCC3)ncn2)cc1 [example 15, N-(4-Methoxyphenyl)-6-morpholinopyrimidin-4-amine] | > 2 |  |  | 
2 | OCCNc1cc(Nc2cccc(F)c2)ncn1 [example 32, 2-(6-(3-Fluorophenylamino)pyrimidin-4-ylamino)ethan-1-ol] | < 1.3 | < 1.3 |  | 
3 | COCCNc1cc(Nc2cccc(Cl)c2)ncn1 [example 27, N^4-(3-Chlorophenyl)-N^6-(2-methoxyethyl)pyrimidine-4,6-diamine] |  |  | < 1.3 | fold induction at 1 µM (Nkx2.5 (P19 cells); P19, 192 h): < 1.3
4 | COc1ccc(Nc2cc(NCC(=O)O)ncn2)cc1 [example 14, 2-(6-(4-Methoxyphenylamino)pyrimidin-4-ylamino)acetic acid] |  |  | > 2 | 
5 | OCCNc1cc(Nc2cccc(Br)c2)ncn1 [example 33, 2-(6-(3-Bromophenylamino)pyrimidin-4-ylamino)ethan-1-ol] | < 1.3 | 1.3 to 2 |  | 
6 | OCCNc1cc(Nc2ccccc2)ncn1 [example 23, 2-(6-(Phenylamino)pyrimidin-4-ylamino)ethan-1-ol] | < 1.3 | < 1.3 |  | 
7 | OCCCNc1cccc(Nc2ccc(Oc3ccccc3)cc2)n1 [example 45, 3-(6-(4-Phenoxyphenylamino)pyridin-2-ylamino)propan-1-ol] | < 1.3 | < 1.3 |  | fold induction at 1 µM (ANF (C2C12 cells); [2]): < 1.3; fold induction at 1 µM (TOPflash (C2C12 cells); [2]): 1.3 to 2; fold induction at 1 µM (Nkx2.5 (C2C12 cells); [2]): < 1.3; fold induction at 1 µM (TOPflash (P19 cells); [1]): < 1.3
8 | COc1ccc(Nc2cc(NC(C)C)ncn2)cc1 [example 12, N^4-(2-Propyl)-N^6-(4-methoxyphenyl)pyrimidine-4,6-diamine] |  |  | < 1.3 | luciferase signal in all three reporter assays (ANF (C2C12 cells); C2C12 cells, 1 μM for 8 days, ANF, TOPflash and Nkx2.5 reporter assays together): increase in the luciferase signal in all three reporter assays; fold induction at 1 µM (ANF (C2C12 cells); C2C12, 192 h): 1.3 to 2; fold induction at 1 µM (TOPflash (C2C12 cells); C2C12, 192 h): 1.3 to 2; fold induction at 1 µM (Nkx2.5 (C2C12 cells); C2C12, 192 h): 1.3 to 2; fold induction at 1 µM (TOPflash (P19 cells); P19, 192 h): < 1.3; fold induction at 1 µM (Nkx2.5 (P19 cells); P19, 192 h): 1.3 to 2
9 | COc1ccc(Nc2cc(N(C)CCO)ncn2)cc1 [example 16, 2-((6-(4-Methoxyphenylamino)pyrimidin-4-yl)(methyl)amino)ethan-1-ol] |  |  | > 2 | 
10 | OCCNc1cc(Nc2cccc(Cl)c2)ncn1 [example 25, 2-(6-(3-Chlorophenylamino)pyrimidin-4-ylamino)ethan-1-ol] | > 2 | 1.3 to 2 |  | 
11 | COc1ccc(Nc2cc(NC3CCCC3)ncn2)cc1 [example 18, N^4-Cyclopentyl-N^6-(4-methoxyphenyl)pyrimidine-4,6-diamine] |  |  | > 2 | 
12 | CCC(C)Nc1cc(Nc2ccc(OC)cc2)ncn1 (centres unmarked) [example 19, N^4-sec-Butyl-N^6-(4-methoxyphenyl)pyrimidine-4,6-diamine] | < 1.3 | < 1.3 |  | 
13 | OCCNc1cc(Nc2ccc(Cl)cc2)ncn1 [example 24, 2-(6-(4-Chlorophenylamino)pyrimidin-4-ylamino)ethan-1-ol] | 1.3 to 2 | 1.3 to 2 |  | melting point: 183 °C
14 | CCCCNc1cc(Nc2ccc(OC)cc2)ncn1 [example 17, N^4-Butyl-N^6-(4-methoxyphenyl)pyrimidine-4,6-diamine] | > 2 |  |  | 
15 | COc1ccc(N(C)c2cc(NCCO)ncn2)cc1 [example 38, 2-(6-((4-Methoxyphenyl)(methyl)amino)pyrimidin-4-ylamino)ethan-1-ol] | > 2 |  |  | 
16 | COc1ccc(Nc2cc(NC34CC5CC(CC(C5)C3)C4)ncn2)cc1 [example 21, N^4-Adamant-1-yl-N^6-(4-methoxyphenyl)pyrimidine-4,6-diamine] |  |  | > 2 | 
